Assay results from US20200377505A1, “BENZIMIDAZOLES AND AZA-BENZIMIDAZOLES, AND METHODS OF USE THEREOF” (Goldfinch Bio., Inc., priority 2017, published 2020).

Experiments:
human TRPC6 = biological target: T1, human TRPC6 (Homo sapiens, UniProt Q9Y210); assay: TRPC6 fluorescence-based assay (Ca2+ flux assay in FLIPR format), cells overexpressing TRPC6; assay type: cell-based; settings: 5 μM of test compound, following Carbachol stimulation
T1 construct: expressed in transfected cells; host or cells: HEK 293
T1 sequence (Q9Y210 1-931): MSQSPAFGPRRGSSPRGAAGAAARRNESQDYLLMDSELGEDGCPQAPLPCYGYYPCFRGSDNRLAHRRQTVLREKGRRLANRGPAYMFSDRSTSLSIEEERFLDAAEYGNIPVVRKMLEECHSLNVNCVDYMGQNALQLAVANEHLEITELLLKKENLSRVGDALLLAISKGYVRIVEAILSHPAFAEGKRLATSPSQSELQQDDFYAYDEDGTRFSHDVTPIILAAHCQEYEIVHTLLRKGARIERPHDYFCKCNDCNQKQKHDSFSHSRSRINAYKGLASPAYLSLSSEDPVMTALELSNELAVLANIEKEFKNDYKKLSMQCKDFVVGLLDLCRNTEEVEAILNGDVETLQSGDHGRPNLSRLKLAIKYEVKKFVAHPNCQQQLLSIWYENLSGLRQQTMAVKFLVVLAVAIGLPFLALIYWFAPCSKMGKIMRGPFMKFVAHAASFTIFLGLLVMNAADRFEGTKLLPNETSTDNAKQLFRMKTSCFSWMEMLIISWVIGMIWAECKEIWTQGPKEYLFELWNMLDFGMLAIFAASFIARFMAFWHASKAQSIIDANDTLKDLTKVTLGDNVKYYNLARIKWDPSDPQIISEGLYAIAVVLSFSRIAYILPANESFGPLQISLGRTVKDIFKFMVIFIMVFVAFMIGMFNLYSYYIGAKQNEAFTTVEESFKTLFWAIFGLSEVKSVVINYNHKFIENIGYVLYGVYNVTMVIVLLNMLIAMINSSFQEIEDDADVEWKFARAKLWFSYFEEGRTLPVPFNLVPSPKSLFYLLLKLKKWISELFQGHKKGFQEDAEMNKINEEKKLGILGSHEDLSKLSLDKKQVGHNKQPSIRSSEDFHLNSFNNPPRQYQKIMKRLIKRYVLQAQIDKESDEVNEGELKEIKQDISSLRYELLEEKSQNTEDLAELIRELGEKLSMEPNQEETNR

human TRPC5 = biological target: T2, human TRPC5 (Homo sapiens, UniProt Q9UL62); assay: TRPC5 fluorescence-based assay (Ca2+ flux assay in FLIPR format), cells overexpressing TRPC5; assay type: cell-based; settings: 5 μM of test compound, following Carbachol stimulation
T2 construct: expressed in transfected cells; host or cells: HEK 293
T2 sequence (Q9UL62 1-973): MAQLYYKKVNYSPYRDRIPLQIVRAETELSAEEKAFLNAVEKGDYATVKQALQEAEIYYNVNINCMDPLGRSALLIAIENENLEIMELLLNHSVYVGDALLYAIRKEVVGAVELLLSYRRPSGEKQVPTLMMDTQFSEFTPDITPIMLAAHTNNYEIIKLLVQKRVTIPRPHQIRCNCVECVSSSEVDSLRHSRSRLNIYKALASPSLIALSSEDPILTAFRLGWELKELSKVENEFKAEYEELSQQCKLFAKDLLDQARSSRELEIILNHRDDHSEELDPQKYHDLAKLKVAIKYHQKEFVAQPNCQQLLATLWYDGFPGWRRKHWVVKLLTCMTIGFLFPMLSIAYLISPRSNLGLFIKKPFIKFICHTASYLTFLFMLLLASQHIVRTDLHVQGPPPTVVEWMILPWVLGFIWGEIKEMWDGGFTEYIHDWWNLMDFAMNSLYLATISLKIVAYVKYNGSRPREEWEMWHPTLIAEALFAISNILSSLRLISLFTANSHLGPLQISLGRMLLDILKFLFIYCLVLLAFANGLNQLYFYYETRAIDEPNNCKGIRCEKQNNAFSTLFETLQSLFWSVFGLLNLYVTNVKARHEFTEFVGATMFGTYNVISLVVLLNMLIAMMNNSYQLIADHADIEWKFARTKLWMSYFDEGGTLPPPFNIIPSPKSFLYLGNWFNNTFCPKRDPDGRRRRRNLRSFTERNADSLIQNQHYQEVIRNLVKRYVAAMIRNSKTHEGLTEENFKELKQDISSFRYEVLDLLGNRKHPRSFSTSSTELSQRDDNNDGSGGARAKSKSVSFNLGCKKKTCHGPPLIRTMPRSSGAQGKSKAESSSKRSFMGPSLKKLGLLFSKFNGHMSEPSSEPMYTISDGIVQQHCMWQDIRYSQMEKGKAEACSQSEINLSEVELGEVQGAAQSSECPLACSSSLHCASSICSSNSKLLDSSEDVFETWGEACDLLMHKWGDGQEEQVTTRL

SMILES	inhibition at 5 µM (human TRPC6) [%]	inhibition at 5 µM (human TRPC5) [%]
CCOc1ccccc1Nc1nc2ccccc2n1C(C)C	40.7	45.1
CCSc1nc2ccccc2n1Cc1cccc([N+](=O)[O-])c1	50	32.2
CCn1c(NCc2cc(C)ccc2O)nc2ccccc21	3.16	51.8
Cc1ccccc1Cn1c(C2CC2)nc2ccccc21	45.3	35.5
CCN(CC)CCn1c(NCc2ccc(Cl)cc2)nc2ccccc21	57.1	62
CCOc1ccccc1CNc1nc2ccccc2n1C	19.3	43.9
COCc1ccccc1Cn1cnc2ccccc21	83.5	61.3
CC(C)(C)NC(=O)Cn1c(NCc2ccccc2)nc2ccccc21	3.97	51

The next lines start with the values.

inhibition at 5 µM (human TRPC6) [%]	inhibition at 5 µM (human TRPC5) [%]	SMILES
52	38.3	COc1ccc(OCc2nc3ccccc3n2CCc2ccccc2)cc1
66.1	37.5	CCOc1ccc(NCc2nc3ccccc3n2CCOc2ccccc2C)cc1
2.78	27	CCC(=O)NCCc1nc2ccccc2n1Cc1ccc(F)cc1
16.5	64.4	c1csc(CNc2nc3ccccc3n2CCN2CCCCC2)c1
68.9	63.3	COc1ccc(CCN2CCC(Nc3nc4ccccc4n3CCc3ccc(OC)cc3)CC2)cc1
27.2	61.1	CC(C)CCn1c(-c2ccc(N)cc2)nc2ccccc21
74.7	64.9	CCCn1c(NCc2ccc(N(CC)CC)cc2)nc2ccccc21
29.8	46	CCCn1c(NCc2ccccc2Cl)nc2ccccc21
8.36	40.7	OCCNc1nc2ccccc2n1CCOc1ccccc1
21.9	61.3	CCCCCCn1c(NCc2ccccc2O)nc2ccccc21
58.5	44.9	COc1ccc(NCc2nc3ccccc3n2CCOc2ccccc2C)cc1
